Here are results for one substance from patent US11680085B2, “Cyclic peptides for protection against respiratory syncytial virus” (VIROMETIX AG, priority 2017, dated 2023).

The test relates to RSV A/Tracy. Briefly: Micro-Neutralization Test (MNT). The settings on record: 40 μg/ml mAb in test solution. It counts as cell-based, respiratory syncytial virus. On the procedure: In order to assess the neutralization capacity of the mAb at 40 μg/ml against RSV A/Tracy a Micro-Neutralization Test (MNT) was performed. A 40 μg/ml Palivizumab stock was taken as positive control and 40 μg/ml stock of an isotype-matched mAb as negative control (Table 10).

Take Palivizumab: the “RSV A, Tracy MN titer (log2)” value was 5.0 log2.
